≈ marks a conversion by molar mass, not a printed value.
Tests used:
Type in all cases: cell-based
Candida albicans = experiment: MIC test (growth inhibition, 96 well plates, OD); settings: read-out: Minimum Inhibitory Concentration (MIC)
Protocol: (§1) The MIC test is a test on growth inhibition. Estimation of Minimum Inhibitory Concentration (MIC) is executed in 96 well plates. Through the comparison of bacterial growth with positive and negative controls via optical density (OD), different concentrations of given test substances are evaluated.
(§2) Bacteria are cultivated under adjusted conditions based on information of the German Collection of Microorganisms and Cell Cultures (DSMZ) and stored in 50% Glycerol prior to use. Afterwards, the following method was applied: Adding growth medium (according to microorganism) to each well of the microplate. Adding the test-substances in different concentrations, positive controls (water controls only with medium) and negative controls (benchmarks according to organism). Adding the microorganism in a concentration of 10^6 CFU/ml (CFU=colony forming units). Incubation of the microplates at appropriate conditions.
(§3) According to resulting growth, substance concentrations are labelled either as inhibiting or not and MIC is defined as the lowest concentration where a complete growth inhibition is visible. Experiments at concentration limits (highest concentration labelled as growth and lowest concentration labelled as inhibiting) are performed at least twice.

Corynebacterium jeikeium = experiment: MIC test (growth inhibition, 96 well plates, OD); settings: read-out: Minimum Inhibitory Concentration (MIC)
Protocol: as §1, §2, §3

Escherichia coli = experiment: MIC test (growth inhibition, 96 well plates, OD); settings: read-out: Minimum Inhibitory Concentration (MIC)
Protocol: as §1, §2, §3

Propionibacterium acnes = experiment: MIC test (growth inhibition, 96 well plates, OD); settings: Cutibacterium acnes; read-out: Minimum Inhibitory Concentration (MIC)
Protocol: as §1, §2, §3

Staphylococcus aureus = experiment: MIC test (growth inhibition, 96 well plates, OD); settings: read-out: Minimum Inhibitory Concentration (MIC)
Protocol: as §1, §2, §3

Staphylococcus hominis = experiment: MIC test (growth inhibition, 96 well plates, OD); settings: read-out: Minimum Inhibitory Concentration (MIC)
Protocol: as §1, §2, §3

Aspergillus brasiliensis = experiment: MIC and Kull synergy index of 1,2-/2,3-alkanediol mixtures; settings: single 2,3-alkanediol, read-out: MIC Component B
[1] = test system: Aspergillus brasiliensis (AB); experiment: Preservation efficacy test (PET), European Pharmacopoeia 5.1.3
Protocol: (§4) The preservation efficacy test (PET) was performed in accordance with European Pharmacopoeia § 5.1.3: The test is a reference European Pharmacopoeia method, that is to be used to evaluate the preservation system of a cosmetic or pharmaceutical preparation. The test consists of challenging the preparation under test, with prescribed inoculums of suitable microorganisms. The preservation porperties of the preparation are adequate if, in the conditions of the test, there is a significant fall or no increase, as appropriate, in the number of microorganisms in the inoculated preparations after the time prescribed.
(§5) The test microorganisms which were used, are the following:
(§6) Pseudomonas aeruginosa (PA) (bacterium); Staphylococcus aureus (SA) (bacterium); Escherichia coli (EC) (bacterium); Candida albicans (CA) (yeast); and Aspergillus brasiliensis (AB) (fungus).

Candida albicans (CA) = experiment: as above
Protocol: as §4, §5, §6

Escherichia coli (EC) = experiment: as above
Protocol: as §4, §5, §6

[2] = test system: Pseudomonas aeruginosa (PA); experiment: as above
Protocol: as §4, §5, §6

[3] = test system: Staphylococcus aureus (SA); experiment: as above
Protocol: as §4, §5, §6

human sebaceous glands = experiment: Sebum production of micro-dissected, cultured human sebaceous glands (lipids/proteins after six days); design: sebum reduction: concentration or dose not given beside the values; settings: compared to untreated control; six days; single donor (FIG. 4)
Protocol: Additional tests were performed with human sebaceous glands in order to verify the modulatory activity of different 1,2-alkanediols and 2,3-alkanediols on sebum secretion. Several microbial species on the skin are lipid dependent and feed on the human sebum (e.g. Corynebacterium, Propionibacterium). Accordingly, sebum reduction can indirectly support the reduction of microorganisms on the skin and in this way also indirectly support e.g. dandruff or acne reduction.
For these experiments sebaceous glands had been micro-dissected and cultured with medium. The medium without any supplement served as untreated control. Medium with 5 μM Capsaicin served as positive control. Additionally, culture medium was supplemented with different concentrations of alkanediols. After six days the sebaceous glands were collected and lipids and proteins quantified. The total lipid amount being representative of sebum production was obtained by normalizing the quantified lipids upon the quantified proteins (i.e. mg of lipids/mg of proteins).

## CCCCCCC(O)C(C)O (centres unmarked) [2,3-nonanediol]
Candida albicans
  MIC: 2500 µg/mL (≈ 15.6 mM)
Corynebacterium jeikeium
  MIC: 2500 µg/mL (≈ 15.6 mM)
Escherichia coli
  MIC: 1000 µg/mL (≈ 6.24 mM)
Propionibacterium acnes
  MIC: 2500 µg/mL (≈ 15.6 mM)
Staphylococcus aureus
  MIC: 2500 µg/mL (≈ 15.6 mM)
Staphylococcus hominis
  MIC: 5000 µg/mL (≈ 31.2 mM)
Aspergillus brasiliensis
  MIC: 1000 µg/mL
[1]; 0.1% in o/w emulsion
  number of microorganisms after 2 days: 1,200,000
  number of microorganisms after 7 days: 1,100,000
  number of microorganisms after 14 days: 890,000
  number of microorganisms after 28 days: 1,100,000
[1]; 0.1% in shampoo
  number of microorganisms after 2 days: 1,800,000
  number of microorganisms after 7 days: 2,000,000
  number of microorganisms after 14 days: 680,000
  number of microorganisms after 28 days: 530,000
[1]; 0.4% in shampoo
  number of microorganisms after 2 days: 2,100,000
  number of microorganisms after 7 days: 1,800,000
  number of microorganisms after 14 days: 1,200,000
  number of microorganisms after 28 days: 1,100,000
Candida albicans (CA); 0.1% in o/w emulsion
  number of microorganisms after 2 days: 2,000,000
  number of microorganisms after 7 days: 2,500,000
  number of microorganisms after 14 days: 1,900,000
  number of microorganisms after 28 days: 970,000
Candida albicans (CA); 0.1% in shampoo
  number of microorganisms after 2 days: 110,000
  number of microorganisms after 7 days: 29,000
  number of microorganisms after 14 days: 870
  number of microorganisms after 28 days: 1
Candida albicans (CA); 0.4% in shampoo
  number of microorganisms after 2 days: 68,000
  number of microorganisms after 7 days: 14,000
  number of microorganisms after 14 days: 690
  number of microorganisms after 28 days: 1
Escherichia coli (EC); 0.1% in o/w emulsion
  number of microorganisms after 2 days: 810,000
  number of microorganisms after 7 days: 27,000
  number of microorganisms after 14 days: 1,100
  number of microorganisms after 28 days: 1
Escherichia coli (EC); 0.1% in shampoo
  number of microorganisms after 2 days: 2,300,000
  number of microorganisms after 7 days: 4,200,000
  number of microorganisms after 14 days: 1,800,000
  number of microorganisms after 28 days: 1,100,000
Escherichia coli (EC); 0.4% in shampoo
  number of microorganisms after 2 days: 3,200,000
  number of microorganisms after 7 days: 4,200,000
  number of microorganisms after 14 days: 1,300,000
  number of microorganisms after 28 days: 1,400,000
[2]; 0.1% in o/w emulsion
  number of microorganisms after 2 days: 1
  number of microorganisms after 7 days: 1
  number of microorganisms after 14 days: 1
  number of microorganisms after 28 days: 1
[2]; 0.1% in shampoo
  number of microorganisms after 2 days: 160,000
  number of microorganisms after 7 days: 2,000,000
  number of microorganisms after 14 days: 10,000,000
  number of microorganisms after 28 days: 8,800,000
[2]; 0.4% in shampoo
  number of microorganisms after 2 days: 17,000
  number of microorganisms after 7 days: 1
  number of microorganisms after 14 days: 1
  number of microorganisms after 28 days: 1
[3]; 0.1% in o/w emulsion
  number of microorganisms after 2 days: 2,200,000
  number of microorganisms after 7 days: 66,000
  number of microorganisms after 14 days: 1
  number of microorganisms after 28 days: 1
[3]; 0.1% in shampoo
  number of microorganisms after 2 days: 31,000
  number of microorganisms after 7 days: 200
  number of microorganisms after 14 days: 1
  number of microorganisms after 28 days: 1
[3]; 0.4% in shampoo
  number of microorganisms after 2 days: 1,800
  number of microorganisms after 7 days: 1
  number of microorganisms after 14 days: 1
  number of microorganisms after 28 days: 1
Human sebaceous glands
  sebum reduction: 41%

Reference: patent publication US20230248626A1, “Compositions Comprising (Bio)-Alkanediols” (Symrise AG, priority 0001, published 2023)
